Converted amounts (≈) assume the structure as drawn.
Tests used:
[1] = tested on: Acinetobacter baumannii; assay: microbe, parasite or virus in culture; conditions: ATCC 19606, 18 h, ASSAY_TEST Inhibition of Bacterial Growth, detection method Absorption (OD600), MEDIA CAMHB, plate type 384well, NBS, CORNING #3640
Description: Antibacterial activity against Acinetobacter baumannii ATCC 19606 (CO-ADD:GN_034); MIC in CAMBH media using NBS plates, by OD600

[2] = tested on: Candida albicans; assay: microbe, parasite or virus in culture; conditions: ATCC 90028, ASSAY_TEST Inhibition of Fungal Growth, detection method Absorption (OD530), plate type 384well, NBS, CORNING #3640
Description: Antifungal activity against Candida albicans ATCC 90028 (CO-ADD:FG_001); MIC in YNB media using NBS plates, by OD630

[3] = tested on: HEK293; assay: cells; type: functional; conditions: Homo sapiens, ATCC CRL1573, HEK293; ASSAY_TEST Inhibition of Cell Viability; detection method Resazurin; Fluorescence (ex560/em590); MEDIA DMEM with 10% FBS; plate type 384well; TC; CORNING #3712; time 18 hr
[4] = tested on: Cryptococcus neoformans
Description: Antifungal activity against Cryptococcus neoformans H99 ATCC 208821 (CO-ADD:FG_002); MIC in YNB media using NBS plates, by Resazurin OD(600-570)

[5] = tested on: Staphylococcus aureus; assay: microbe, parasite or virus in culture; conditions: ATCC 43300, 18 h, ASSAY_TEST Inhibition of Bacterial Growth, detection method Absorption (OD600), MEDIA CAMHB, plate type 384well, NBS, CORNING #3640
Description: Antibacterial activity against Staphylococcus aureus MRSA ATCC 43300 (CO-ADD:GP_020); MIC in CAMBH media, using NBS plates, by OD(600)

[6] = tested on: Klebsiella pneumoniae; assay: microbe, parasite or virus in culture; conditions: ATCC 700603, 18 h, ASSAY_TEST Inhibition of Bacterial Growth, detection method Absorption (OD600), MEDIA CAMHB, plate type 384well, NBS, CORNING #3640
Description: Antibacterial activity against Klebsiella pneumoniae MDR ATCC 70063 (CO-ADD:GN_003); MIC in CAMBH media using NBS plates, by OD(600)

[7] = tested on: Pseudomonas aeruginosa; assay: microbe, parasite or virus in culture; conditions: ATCC 27853, 18 h, ASSAY_TEST Inhibition of Bacterial Growth, detection method Absorption (OD600), MEDIA CAMHB, plate type 384well, NBS, CORNING #3640
Description: Antibacterial activity against Pseudomonas aeruginosa ATCC 27853 (CO-ADD:GN_042); MIC in CAMBH media using NBS plates, by OD(600)

[8] = tested on: Escherichia coli; assay: microbe, parasite or virus in culture; conditions: ATCC 25922, 18 h, ASSAY_TEST Inhibition of Bacterial Growth, detection method Absorption (OD600), MEDIA CAMHB, plate type 384well, NBS, CORNING #3640
Description: Antibacterial activity against Escherichia coli ATCC 25922 (CO-ADD:GN_001); MIC in CAMBH media using NBS plates, by OD(600)

Row | MIC [1] [µM] | MIC [2] [µM] | MIC [4] [µM] | MIC [5] [µM] | MIC [6] [µM] | MIC [7] [µM] | MIC [8] [µM] | SMILES | CC50 [3] [µM]
1 | > 10 | > 10 | > 10 | 10 (≈ 4.38 µg/mL) | > 10 | > 10 | > 10 | CC(=O)NCC1CN(c2ccc(-c3ccc(CNCc4cn[nH]n4)cc3)c(F)c2)C(=O)O1 (stereo not drawn) | > 10
2 | > 10 | > 10 | > 10 | > 10 | > 10 | > 10 | > 10 | COC(=O)Nc1nc2cc(C(=O)c3ccccc3)ccc2[nH]1 [MEBENDAZOLE] | > 10
3 | 5 (≈ 2.02 µg/mL) | 2.5 (≈ 1.01 µg/mL) | 1.25 (≈ 0.504 µg/mL) | 1.25 (≈ 0.504 µg/mL) | 10 (≈ 4.03 µg/mL) | 10 (≈ 4.03 µg/mL) | 5 (≈ 2.02 µg/mL) | N=C(N)Nc1ccc(-c2ccc(-c3ccc(NC(=N)N)cc3Cl)o2)c(Cl)c1 | > 10
4 | > 10 | > 10 | > 10 | > 10 | > 10 | > 10 | > 10 | CCOC(=O)NC(=O)c1ccsc1NC(=O)c1nc2ccccc2s1 | > 10
5 | > 10 | > 10 | > 10 | > 10 | > 10 | > 10 | > 10 | Brc1cncc(-c2cc(NCCCn3ccnc3)nc(-c3ccccc3)n2)c1 | > 10
6 | > 10 | > 10 | > 10 | > 10 | > 10 | > 10 | > 10 | Cc1ccc2c(c1C)NC(=O)C21NN=C(c2ccccc2)S1 (stereo not drawn) | > 10
7 | > 10 | > 10 | > 10 | > 10 | > 10 | > 10 | > 10 | COc1cccc(-n2nnnc2S(=O)(=O)Cc2ccccc2)c1 | > 10
8 | > 10 | > 10 | > 10 | > 10 | > 10 | > 10 | > 10 | O=C(Nc1ccc2c(c1)B(O)OC2)c1ccccc1C(F)(F)F | > 10
9 | > 10 | > 10 | > 10 | > 10 | > 10 | > 10 | > 10 | CCCCCCCCCCCCCCCCOP(=O)([O-])OCC[N+](C)(C)C [MILTEFOSINE] | > 10
10 | > 10 | > 10 | > 10 | > 10 | > 10 | > 10 | > 10 | COc1cccc(-n2nnnc2S(C)(=O)=O)c1 | 2.96
11 | > 10 | > 10 | > 10 | > 10 | > 10 | > 10 | > 10 | Cc1nc(-c2ccccn2)nc(N(C)CCc2ccccc2)c1Cl | > 10
12 | > 10 | > 10 | > 10 | 1.25 (≈ 0.531 µg/mL) | > 10 | > 10 | > 10 | COc1ccc2nccc(NC(=O)C3CCN(CCc4ccc(Cl)cc4)CC3)c2n1 | > 10
13 | > 10 | > 10 | > 10 | 10 (≈ 3.59 µg/mL) | > 10 | > 10 | > 10 | FC(F)(F)c1cnc(Sc2nnc(-c3ccncc3)o2)c(Cl)c1 | > 10
14 | > 10 | > 10 | > 10 | 10 (≈ 3.64 µg/mL) | > 10 | > 10 | > 10 | CC(c1cc(Cl)cc(Cl)c1)N(C)c1ncc2c(N)nc(N)nc2n1 (stereo not drawn) | > 10
15 | > 10 | > 10 | > 10 | > 10 | > 10 | > 10 | > 10 | COc1cc(C2=NCCN2)cc2cc(-c3ccc(C4=NCCN4)cc3)oc12 | > 10

More lines, now with the values behind:

Row | SMILES | MIC [1] [µM] | MIC [2] [µM] | MIC [4] [µM] | MIC [5] [µM] | MIC [6] [µM] | MIC [7] [µM] | MIC [8] [µM] | CC50 [3] [µM]
16 | O=C1O[C@@H](COc2ccon2)CN1c1cc(F)c(C2=CCN(Cc3ccccc3)CC2)c(F)c1 | > 10 | > 10 | > 10 | > 10 | > 10 | > 10 | > 10 | > 10
17 | CC(C)(C)C(O)C(Oc1ccc(-c2ccccc2)cc1)n1cncn1 (stereo not drawn) [BITERTANOL] | > 10 | 5 (≈ 1.69 µg/mL) | 1.25 (≈ 0.422 µg/mL) | > 10 | > 10 | > 10 | > 10 | > 10
18 | Cc1[nH]c2ccccc2c1C(c1cccs1)N1CCN(C)CC1 (stereo not drawn) | > 10 | 5 (≈ 1.63 µg/mL) | > 10 | > 10 | > 10 | > 10 | > 10 | > 10
19 | CO/N=C(\C(=O)OC)c1ccccc1CO/N=C(\C)c1cccc(C(F)(F)F)c1 | > 10 | > 10 | > 10 | > 10 | > 10 | > 10 | > 10 | > 10
20 | Oc1c(I)cc(I)c2cccnc12 [IODOQUINOL] | > 10 | > 10 | > 10 | > 10 | > 10 | > 10 | > 10 | > 10
21 | CN1CCN(CCCOc2ncc(Nc3ncc(-c4ccc(C(F)(F)F)c(F)c4)nc3C(N)=O)cn2)CC1 | > 10 | > 10 | > 10 | > 10 | > 10 | > 10 | > 10 | > 10
22 | N=C(N)c1ccc(OCCCCCOc2ccc(C(=N)N)cc2)cc1 [PENTAMIDINE ISETHIONATE] | > 10 | 0.312 | > 10 | > 10 | > 10 | > 10 | > 10 | > 10
23 | COc1ccc(OC)c(NCc2ccc3nc(N)nc(N)c3c2Cl)c1 | > 10 | > 10 | > 10 | 0.625 (≈ 0.225 µg/mL) | 10 (≈ 3.6 µg/mL) | 2.5 (≈ 0.9 µg/mL) | 2.5 (≈ 0.9 µg/mL) | > 10
24 | C[C@@H]1[C@H](O)[C@@H](C)/C=C/C=C/C=C/C=C/C=C/C=C/C=C/[C@H](O[C@@H]2O[C@H](C)[C@@H](O)[C@H](N)[C@@H]2O)C[C@@H]2O[C@](O)(C[C@@H](O)C[C@@H](O)[C@H](O)CC[C@@H](O)C[C@@H](O)CC(=O)O[C@H]1C)C[C@H](O)[C@H]2C(=O)O [AMPHOTERICIN B] | > 10 | > 10 | > 10 | > 10 | > 10 | > 10 | > 10 | > 10
25 | CO/C=C(/C(=O)OC)c1ccccc1Oc1cc(Oc2ccccc2C#N)ncn1 [AZOXYSTROBIN] | > 10 | 0.625 (≈ 0.252 µg/mL) | > 10 | > 10 | > 10 | > 10 | > 10 | > 10
26 | N=C(N)Nc1ccc(-c2ccc(-c3ccc(N=C(N)N)c(Cl)c3)o2)cc1Cl | > 10 | > 10 | > 10 | 10 (≈ 4.03 µg/mL) | > 10 | > 10 | > 10 | > 10
27 | O=C(Nc1ccc(N2CCNCC2)cc1)c1ccn2ncc(-c3cccc(Cl)c3)c2n1 | > 10 | > 10 | > 10 | > 10 | > 10 | > 10 | > 10 | 9.02
28 | O=C([C@@H](c1ccc(Cl)cc1)c1cccnc1)N1CCN(c2ccc(C(F)(F)F)cc2)CC1 | > 10 | > 10 | > 10 | > 10 | > 10 | > 10 | > 10 | > 10
29 | O=C(COc1cccc(F)c1)Nc1nc(-c2ccccn2)cs1 | > 10 | > 10 | > 10 | > 10 | > 10 | > 10 | > 10 | > 10
30 | CC1COC(Cn2cncn2)(c2ccc(Oc3ccc(Cl)cc3)cc2Cl)O1 (stereo not drawn) [DIFENOCONAZOLE] | > 10 | 0.625 (≈ 0.254 µg/mL) | 0.625 (≈ 0.254 µg/mL) | > 10 | > 10 | > 10 | > 10 | > 10
31 | Clc1cccc(C(c2ccc(CN3CCNCC3)cc2)n2ccnc2)c1 (stereo not drawn) | > 10 | > 10 | > 10 | > 10 | > 10 | > 10 | > 10 | > 10
